Results as given in US6908937B2, “Heterocyclic fluoroalkenyl thioethers (II)” (Bayer Cropscience AG, priority 2000, dated 2005).

Tests used:
[1] = logP determination by HPLC (EEC Directive 79/831 Annex V.A8); assay type: physicochemical
[2] = tested on: larvae of the mustard beetle (Phaedon cochleariae); experiment: Phaedon larvae test; conditions: 1000 ppm, after 7 days, cabbage leaves dipped
[3] = tested on: peach aphid (Myzus persicae); experiment: Myzus test; assay type: in vivo; conditions: 10 ppm, after 6 days, Vicia faba seedlings dipped
[4] = tested on: greenhouse red spider mite (Tetranychus urticae); experiment: Tetranychus test (OP-resistant/dip treatment); assay type: in vivo; conditions: 0.1%, after 7 days, bean plants dipped
Source text: Tetranychus Test (OP-resistant/Dip Treatment)

[5] = tested on: Boophilus microplus resistant (SP-resistant Parkhurst strain); experiment: Test with Boophilus microplus resistant (SP-resistant Parkhurst strain/I), dip; assay type: in vivo; conditions: 100 ppm, adult females dipped for 1 minute
Protocol: Test with Boophilus microplus Resistant (SP-resistant Parkhurst Strain/I)
(§1) 20 mg of active compound are dissolved in 1 ml of dimethyl sulphoxide, more dilute concentrations are prepared by dilution with distilled water.
10 adult Boophilus microplus res. are dipped for 1 minute into the preparation of active compound to be tested. The animals are transferred into plastic beakers and kept in a climatized room, and the kill rate is then determined.

[6] = tested on: Boophilus microplus resistant (SP-resistant Parkhurst strain); experiment: Test with Boophilus microplus resistant (SP-resistant Parkhurst strain/II), injection; assay type: in vivo; conditions: injected into the abdomen, after 7 days; for kill (no oviposition of fertile eggs): 20 μg per animal
Protocol: Test with Boophilus microplus Resistant (SP-resistant Parkhurst Strain/II)
20 mg of active compound are dissolved in 1 ml of dimethyl sulphoxide, more dilute concentrations are prepared by dilution in the same solvent.
The test is carried out in 5 replications. 1 μl of the solutions is injected into the abdomen, and the animals are transferred into dishes and kept in a climatized room. After 7 days, the activity is checked by examination for oviposition of fertile eggs. Eggs whose fertility is not visible from the outside are stored in glass tubes in a controlled-environment cabinet until the larvae have hatched. An activity of 100% means that no tick has produced any fertile eggs.

[7] = tested on: Blatella germanica or Periplaneta americana; experiment: Cockroach test; assay type: in vivo; conditions: 100 ppm, dipped for 1 minute, after 7 days
Protocol: 20 mg of active compound are dissolved in 1 ml of dimethyl sulphoxide, more dilute concentrations are prepared by dilution with distilled H2O.
4 test animals are dipped for 1 minute into the preparation of active compound to be tested.
The test animals are transferred into plastic beakers and kept in a climatized room for 7 days, after which the kill rate is determined.

[8] = tested on: adults of Ctenocephalides felis; experiment: Test with cat fleas/oral uptake; assay type: in vivo; conditions: 100 ppm in citrated cattle blood, after 28 h
Protocol: Test with Cat Fleas/Oral Uptake
15 μl of this formulation are added to 3 ml of citrated cattle blood and stirred.
10 unfed adult fleas (Ctenocephalides felis, strain “Georgi”) are placed into a chamber (Ø 3.2 cm) whose top and bottom are closed with gauze. A metal cylinder whose underside is covered with parafilm is placed onto the chamber. […] Whereas the blood is warmed to 37° C., the temperature in the area of the flea chambers is adjusted to 25° C. Controls are mixed with the same volume of DMSO, without addition of a compound. The determinations are carried out in triplicate.
After 28 h, the mortality in % (=dead fleas) is determined.

Meloidogyne incognita = experiment: Meloidogyne test; assay type: in vivo; conditions: 20 ppm, after 14 days, lettuce
Protocol: Containers are filled with sand, solution of active compound, Meloidogyne incognita egg/larvae suspension and lettuce seeds. The lettuce seeds germinate and the plants develop. On the roots, galls are formed.
After the desired period of time, the nematicidal action is determined in % using gall formation as a measure. 100% means that no galls were found; 0% means that the number of galls on the treated plants corresponds to that of the untreated control.

Lucilia cuprina larvae = experiment: Blowfly larvae test/development-inhibitory action; assay type: in vivo; conditions: 100 ppm
Protocol: Blowfly Larvae Test/Development-inhibitory Action
as §1
About 20 Lucilia cuprina larvae are introduced into a test tube which contains about 1 cm^3 of horse meat and 0.5 ml of the preparation of active compound to be tested. After 24 hours and 48 hours, the efficacy of the preparation of active compound is determined. The test tubes are transferred into a beaker whose bottom is covered with sand. After a further 2 days, the test tubes are removed and the pupae are counted.
The efficacy of the preparation of active compound is assessed by the number of flies that have hatched after 1.5 times the period of development of an untreated control. 100% means that no flies have hatched; 0% means that all flies have hatched normally.

[9] = tested on: Trichinella spiralis larvae; experiment: Trichinella spiralis in-vitro; parameters: key: 0 means no activity; 1 means weak activity; 2 means good activity; 3 means full activity; conditions: 100 ppm, 5 days at 19° C.
Protocol: Trichinella spiralis In-vitro
Trichinella spiralis larvae are isolated from skeletal muscles and subcutaneous muscles of SPF/CFW1 mice and collected in aqueous 0.9% NaCl containing 20 μg of sisomycin/ml. Per determination, 20 larvae are incubated in 2 ml of a nutrient solution (20 g of Bacto Casitone/l, 10 g of yeast extract/l, 5 g of glucose/l, 0.8 g of KH2PO4/l, 0.8 g of K2HPO4; […] of sisomycin/ml and 1 μg of Canesten/ml; pH=7.2).
The incubation and the determination have been described in Martin et al., Pesticide Science (1996) 48, 343-349. 10 mg of the test compound are dissolved in 0.5 ml of the stated solvent, and such an amount of the resulting solution is added to the incubation medium that the desired concentration is reached. The controls contain only the solvent.
After an incubation time of 5 days at a temperature of 19° C., the experiment is terminated. The anthelmintic activity of a substance is categorized into 4 stages. 0 means no activity, 1 means weak activity, 2 means good activity and 3 means full activity (<50%, 50-75%, >75%, 100% of the larvae dead).

[10] = tested on: caterpillars of the army worm (Spodoptera frugiperda); experiment: Spodoptera frugiperda test; assay type: in vivo; conditions: 1000 ppm, after 7 days, cabbage leaves dipped
Source text: Spodoptera frugiperda Test

[11] = pH2, HPLC gradient method, acetonitrile/0.1% aqueous phosphoric acid, Table 1

FC(F)=C(F)CCCCSc1nnc(C(F)(F)F)s1 [Example 11]
logP (pH2) [1, 11]: 4.21
kill [2]: 100%

CSc1nnc(SCCCCC=C(F)F)s1 [Example 6]
logP (pH2) ([1]; pH 2): 3.79
kill [3]: 95%
kill [4]: 98%
kill [5]: 100%
activity (no oviposition of fertile eggs) ([6]; 0.8 μg per animal): 100%
activity (no oviposition of fertile eggs) ([6]; 4 μg per animal): 100%
kill (no oviposition of fertile eggs) [6]: 100%
kill [7]: 75%
kill (mortality) [8]: 81%
kill [2]: 100%

FC(F)=C(F)CCCCSc1nnc(SCCC(F)=C(F)F)s1 [Example 27]
logP (pH2) ([1]; pH 2): 4.71

C[S+]([O-])c1nnc(SCCCCC(F)=C(F)F)s1 (stereo not drawn) [Example 9]
logP (pH2) ([1]; pH 2): 2.46

CC(C)CCSc1nnc(SCCCCC=C(F)F)s1 [Example 12]
logP (pH2) ([1]; pH 2): 5.68
nematicidal action (gall formation) (Meloidogyne incognita): 100%
kill [4]: 98%
kill [5]: 100%
activity (no oviposition of fertile eggs) ([6]; 0.8 μg per animal): 100%
activity (no oviposition of fertile eggs) ([6]; 4 μg per animal): 100%
kill (no oviposition of fertile eggs) [6]: 100%
kill (no flies hatched) (Lucilia cuprina larvae): 100%
kill (mortality) [8]: 94%
anthelmintic activity class (larvae dead) [9]: no activity
kill [2]: 100%

FC(F)=CCCCCSc1nnc(SC(F)F)s1 [Example 30]
logP (pH2) ([1]; pH 2): 3.91

FC(F)=CCCCCSC1=NCCCS1 [IB-1]
logP (pH2) ([1]; pH 2): 1.48

FC(F)=C(F)CCCCSc1nnc(-c2cc(Cl)nc(Cl)c2)o1 [Example 16]
logP (pH2) ([1]; pH 2): 4.55

CC(C)CCSc1nnc(SCCCCC(F)=C(F)F)s1 [Example 13]
logP (pH2) [1, 11]: 5.53
nematicidal action (gall formation) (Meloidogyne incognita): 100%

FC(F)=C(F)CCCCSc1nnc(-c2ccc(C(F)(F)F)cc2)o1 [Example 1, 2-(6,6,5-trifluorohex-5-enylthio)-5-(4-trifluoromethyl-phenyl)-1,3,4-oxadiazole]
kill [10]: 100%
melting point: 40 °C

CCOc1nnc(SCCCCC(F)=C(F)F)s1 [Example 24]
logP (pH2) ([1]; pH 2): 3.80

FC(F)=CCCCCSc1nnc(SCCC(F)=C(F)F)s1 [Example 28]
logP (pH2) ([1]; pH 2): 4.84

FC(F)=CCCCCSc1nnc(C(F)(F)F)s1 [Example 10]
logP (pH2) [1, 11]: 4.32
kill [3]: 100%
kill [10]: 100%
kill [5]: 100%
activity (no oviposition of fertile eggs) ([6]; 0.8 μg per animal): 100%
activity (no oviposition of fertile eggs) ([6]; 4 μg per animal): 100%
kill (no oviposition of fertile eggs) [6]: 100%
kill [7]: 100%
kill (mortality) [8]: 87%
anthelmintic activity class (larvae dead) [9]: no activity

FC(F)=C(F)CCCCSc1nnc(SC(F)F)s1 [Example 29]
logP (pH2) ([1]; pH 2): 3.82

FC(F)=C(F)CCCCSc1nnc(SCCCCC(F)=C(F)F)s1 [Example 21]
logP (pH2) ([1]; pH 2): 5.27
activity (no oviposition of fertile eggs) ([6]; 0.8 μg per animal): 100%
activity (no oviposition of fertile eggs) ([6]; 4 μg per animal): 100%
kill (no oviposition of fertile eggs) [6]: 100%
anthelmintic activity class (larvae dead) [9]: no activity

CSc1nnc(SCCCCC(F)=C(F)F)s1 [Example 5]
logP (pH2) ([1]; pH 2): 3.69
nematicidal action (gall formation) (Meloidogyne incognita): 100%
kill (no oviposition of fertile eggs) [6]: 100%

FC(F)=CCCCCSc1nnc(-c2ccc(C(F)(F)F)cc2)o1 [Example 2]
logP (pH2) [1, 11]: 4.77
nematicidal action (gall formation) (Meloidogyne incognita): 100%
kill [3]: 95%
kill [4]: 98%
kill (no oviposition of fertile eggs) [6]: 100%
kill (mortality) [8]: 93%
anthelmintic activity class (larvae dead) [9]: no activity
kill [2]: 100%

CC(C)Oc1nnc(SCCCCC(F)=C(F)F)s1 [Example 25]
logP (pH2) ([1]; pH 2): 4.24

FC(F)=C(F)CCCCSC1=NCCCS1 [IB-2]
logP (pH2) ([1]; pH 2): 1.51
